Test results as given in the supplement of paper PMC11451515.

System: SEM cells
Assay: cell viability relative to DMSO control; higher = less cytotoxic
Conditions: 48 h
Procedure, shortened: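 NOMO1 or SEM cells were plated at 500 cells/well and P12-Ichikawa cells at 1000 cells/well in 1536-well plates (5 μl), after each leukemia line had been adapted for at least four passages in each medium. Pin dosing delivered library compounds in DMSO at 11 threefold concentrations, 47 μM to 0.79 nM. CellTiter-Glo One luminescence was read after 48 h at 37°C. Viability is reported as a per-plate percentage of DMSO wells, with cell-free wells as background.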

[1] = HPLM + 10% dialyzed FBS, 0.000781 µM
[2] = HPLM + 10% dialyzed FBS, 0.00234 µM
[3] = HPLM + 10% dialyzed FBS, 0.00702 µM
[4] = HPLM + 10% dialyzed FBS, 0.0211 µM
[5] = HPLM + 10% dialyzed FBS, 0.0632 µM
[6] = HPLM + 10% dialyzed FBS, 0.19 µM
[7] = HPLM + 10% dialyzed FBS, 0.569 µM
[8] = HPLM + 10% dialyzed FBS, 1.71 µM
[9] = HPLM + 10% dialyzed FBS, 5.12 µM
[10] = HPLM + 10% dialyzed FBS, 15.4 µM
[11] = HPLM + 10% dialyzed FBS, 46.1 µM
[12] = RPMI 5 mM glucose + 10% FBS, 0.000781 µM
[13] = RPMI 5 mM glucose + 10% FBS, 0.00234 µM
[14] = RPMI 5 mM glucose + 10% FBS, 0.00702 µM
[15] = RPMI 5 mM glucose + 10% FBS, 0.0211 µM
[16] = RPMI 5 mM glucose + 10% FBS, 0.0632 µM
[17] = RPMI 5 mM glucose + 10% FBS, 0.19 µM
[18] = RPMI 5 mM glucose + 10% FBS, 0.569 µM
[19] = RPMI 5 mM glucose + 10% FBS, 1.71 µM
[20] = RPMI 5 mM glucose + 10% FBS, 5.12 µM
[21] = RPMI 5 mM glucose + 10% FBS, 15.4 µM
[22] = RPMI 5 mM glucose + 10% FBS, 46.1 µM
[23] = RPMI 5 mM glucose + 10% dialyzed FBS, 0.000781 µM
[24] = RPMI 5 mM glucose + 10% dialyzed FBS, 0.00234 µM
[25] = RPMI 5 mM glucose + 10% dialyzed FBS, 0.00702 µM
[26] = RPMI 5 mM glucose + 10% dialyzed FBS, 0.0211 µM
[27] = RPMI 5 mM glucose + 10% dialyzed FBS, 0.0632 µM
[28] = RPMI 5 mM glucose + 10% dialyzed FBS, 0.19 µM
[29] = RPMI 5 mM glucose + 10% dialyzed FBS, 0.569 µM
[30] = RPMI 5 mM glucose + 10% dialyzed FBS, 1.71 µM
[31] = RPMI 5 mM glucose + 10% dialyzed FBS, 5.12 µM
[32] = RPMI 5 mM glucose + 10% dialyzed FBS, 15.4 µM
[33] = RPMI 5 mM glucose + 10% dialyzed FBS, 46.1 µM

Row | Compound | cell viability [1] [%] | cell viability [2] [%] | cell viability [3] [%] | cell viability [4] [%] | cell viability [5] [%] | cell viability [6] [%] | cell viability [7] [%] | cell viability [8] [%] | cell viability [9] [%] | cell viability [10] [%] | cell viability [11] [%] | cell viability [12] [%] | cell viability [13] [%] | cell viability [14] [%] | cell viability [15] [%] | cell viability [16] [%] | cell viability [17] [%] | cell viability [18] [%] | cell viability [19] [%] | cell viability [20] [%] | cell viability [21] [%] | cell viability [22] [%] | cell viability [23] [%] | cell viability [24] [%] | cell viability [25] [%] | cell viability [26] [%] | cell viability [27] [%] | cell viability [28] [%] | cell viability [29] [%] | cell viability [30] [%] | cell viability [31] [%] | cell viability [32] [%] | cell viability [33] [%]
1 | CC(=O)N1CCN(c2ccc(OCc3nn(C)c(C)c3-c3cccc4c(CCCOc5cccc6ccccc56)c(C(=O)O)n(Cc5cccnc5)c34)cc2)CC1 | 92.6 | 91.9 | 106 | 112 | 107 | 126 | 115 | 120 | 122 | 108 | 108 | 87.6 | 78 | 86.4 | 93.6 | 81.8 | 103 | 108 | 115 | 105 | 104 | 84.7 | 101 | 85.1 | 115 | 112 | 119 | 127 | 112 | 115 | 109 | 113 | 104
2 | CN1CCC(CC1)COC2=CN=C(N=C2)C3=CC(=CC=C3)CN4/N=C(\C=C/C4=O)C5=CC(=CC=C5)C#N | 78.8 | 105 | 98 | 102 | 112 | 117 | 108 | 104 | 107 | 89.9 | 92.7 | 67.6 | 87.1 | 85.4 | 66.2 | 67.5 | 75.6 | 79.9 | 74.7 | 66.5 | 74.9 | 73.2 | 69.8 | 103 | 110 | 114 | 99.2 | 91.4 | 115 | 104 | 106 | 87.3 | 105
3 | CC1=CC=CC=C1CN2C(=O)C/3=C(/CCN(CC4=CC=CC=C4)C3)N\5CC\N=C25 | 113 | 121 | 125 | 115 | 117 | 120 | 115 | 110 | 94 | 25.3 | 19.6 | 129 | 119 | 114 | 101 | 114 | 109 | 97.1 | 95.9 | 50.9 | 13.2 | 9.39 | 127 | 121 | 119 | 119 | 141 | 119 | 136 | 133 | 58.4 | 19.6 | 19.8
4 | Cc1cccc(C)c1OCC(=O)N[C@@H](Cc1ccccc1)[C@@H](O)C[C@H](Cc1ccccc1)NC(=O)[C@H](C(C)C)N1CCCNC1=O | 80.3 | 94.2 | 86.7 | 96.4 | 100 | 81.4 | 85.6 | 76 | 78.5 | 65.4 | 39 | 97.7 | 94.2 | 102 | 94.8 | 108 | 103 | 95.9 | 90.9 | 79.6 | 77.1 | 36.7 | 79.8 | 101 | 93.7 | 102 | 104 | 100 | 107 | 104 | 85.5 | 69.1 | 31.2
5 | CN(C/C=C/C#CC(C)(C)C)Cc1cccc2ccccc12 | 81.5 | 84.7 | 93 | 92.4 | 96.3 | 101 | 114 | 94 | 107 | 100 | 98.3 | 72.2 | 99.6 | 86.7 | 94.2 | 93.3 | 101 | 105 | 105 | 95 | 76.5 | 99.4 | 81 | 90.4 | 85.9 | 98.9 | 110 | 95.6 | 96.6 | 104 | 117 | 104 | 95
6 | CN1\C(=C(\O)C2=C(C=CS2)[S+]1([O-])=O)C(=O)NC3=CC=CC=N3 | 106 | 108 | 112 | 103 | 114 | 112 | 109 | 105 | 106 | 98.4 | 102 | 95 | 107 | 112 | 100 | 114 | 101 | 112 | 103 | 103 | 108 | 90.9 | 110 | 95.5 | 112 | 108 | 107 | 112 | 104 | 112 | 106 | 106 | 103
7 | CCC1(c2ccc(N)cc2)CCC(=O)NC1=O (stereo unspecified) | 114 | 113 | 127 | 114 | 118 | 114 | 107 | 55.3 | 108 | 95.1 | 96.6 |  |  |  |  |  |  |  |  |  |  |  |  |  |  |  |  |  |  |  |  |  | 
8 | ClC1=CC(=CC=C1)N2CCN(CCCN3\N=C4\C=C/C=C\N4C3=O)CC2 | 79.3 | 107 | 107 | 112 | 121 | 130 | 127 | 131 | 140 | 131 | 145 | 117 | 126 | 123 | 138 | 140 | 138 | 146 | 157 | 150 | 165 | 127 |  |  |  |  |  |  |  |  |  |  | 
